Measured values reported in patent US20060122181A1, “Heteroaromatic pentacyclic compound and medicinal use thereof” (Japan Tobacco Inc., priority 2003, published 2006).

Experiments:
[1] = molecular target: T1, Recombinant human protein tyrosine phosphatase 1B (Homo sapiens, UniProt P18031); assay: Protein tyrosine phosphatase 1B inhibitory activity (malachite green, phosphorylated insulin receptor peptide substrate); assay type: biochemical; details: recombinant human PTP1B, 60 min room temperature, absorbance 650 nm
T1 construct: purchased UBI
T1 sequence (P18031 1-435): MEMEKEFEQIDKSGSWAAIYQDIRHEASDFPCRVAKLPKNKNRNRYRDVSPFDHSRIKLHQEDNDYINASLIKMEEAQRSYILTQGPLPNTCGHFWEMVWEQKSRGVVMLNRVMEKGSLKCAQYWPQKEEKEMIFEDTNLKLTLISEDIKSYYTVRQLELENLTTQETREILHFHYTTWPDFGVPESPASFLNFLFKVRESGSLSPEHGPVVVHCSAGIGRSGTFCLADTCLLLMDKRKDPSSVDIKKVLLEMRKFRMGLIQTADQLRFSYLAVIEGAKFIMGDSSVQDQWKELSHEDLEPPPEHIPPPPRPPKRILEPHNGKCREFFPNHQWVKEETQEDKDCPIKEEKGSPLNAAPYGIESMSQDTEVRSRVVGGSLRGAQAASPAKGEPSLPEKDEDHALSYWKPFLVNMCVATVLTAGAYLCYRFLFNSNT
Method: Preparation of Assay Buffer:
A 50 mM Tris-HCl buffer (pH 7.5), 50 mM NaCl and 3 mM dithiothreitol (DTT) were prepared.
[…] 0.1, 0.3, 1, 3 and 10 μM of the test compound were prepared and diluted with the above-mentioned assay buffer to the final dimethyl sulfoxide (DMSO) concentration of not more than 1%. As the control, the assay buffer was used.
Preparation of Substrate:
Recombinant human protein tyrosine phosphatase 1B (manufactured by UBI) was diluted with the above-mentioned assay buffer (1.2 ng/25 μl).
The sample (10 μl) prepared as mentioned above and a substrate (25 μl) were successively added to a 96 well plate, and the enzyme (25 μl) prepared as mentioned above was added and mixed. The mixture was incubated at room temperature for 60 min and a malachite green (120 μl, Biomol), which is a color reagent, was added. The mixture was further incubated at room temperature for 20 min to allow for color development. An absorbance at 650 nm was measured on a plate reader based on which the protein tyrosine phosphatase 1B inhibitory activity of the test compound was evaluated.

Row | IC50 [1] [µM] | melting point | Structure (SMILES)
1 | 0.31 | 148.5 to 149.5 °C | CCCC(CCC)c1ccc(OCc2ccc(-c3csc(CN4CCc5ccc(C(=O)O)cc5C4)n3)cc2)cc1 [Example 1-160]
2 | 0.18 | 191 to 193 °C | CCCC(CCC)c1ccc(COc2ccc(-c3csc(CN4CCC(c5ccc(C(=O)O)cc5)CC4)n3)cc2)cc1 [Example 1-161]
3 | 0.21 | 187 to 189 °C | CCCC(CCC)c1ccc(COc2ccc(-c3csc(CN4CCC(c5cccc(C(=O)O)c5)CC4)n3)cc2)cc1 [Example 1-162]
4 | 0.31 | 124 to 128 °C | CCCC(CCC)c1ccc(Cn2cc(-c3csc(CN4CCc5ccc(C(=O)O)cc5C4)n3)c3ccccc32)cc1 [Example 1-166]
5 | 0.41 | 83 to 85 °C | CCCC(CCC)c1ccc(Cn2cc(-c3csc(CNc4cccc(C(=O)O)c4)n3)c3ccccc32)cc1 [Example 1-167]
6 | 0.28 | 107 to 110 °C | CCCC(CCC)c1ccc(Cn2cc(-c3csc(CN4CCN(c5cccc(C(=O)O)c5)CC4)n3)c3ccccc32)cc1 [Example 1-172]
7 | 0.44 | 195 to 196.5 °C | CCCC(CCC)c1ccc(OCc2ccc(-c3csc(Cn4nc(C(=O)O)cc4C(C)(C)C)n3)cc2)cc1 [Example 1-178]
8 | 0.2 | 174 to 175 °C | CCCC(CCC)c1ccc(OCc2ccc(-c3csc(CC4CCN(c5ccc(C(=O)O)cc5)CC4)n3)cc2)cc1 [Example 1-181]
9 | 0.19 | 148 to 152 °C | CCCC(CCC)c1ccc(Cn2cc(-c3csc(Cn4cc(C(=O)O)c5ccccc54)n3)c3ccccc32)cc1 [Example 1-182]
10 | 0.38 | 153 to 155 °C | CCC(CC)c1ccc(COc2ccc(-c3csc(CN(CC(=O)O)Cc4ccc(F)cc4)n3)cc2)cc1 [Example 3-14]
11 | 0.11 | 90 to 93 °C | CCCC(CCC)c1ccc(COc2ccc(-c3csc(CN4Cc5ccccc5C[C@H]4C(=O)O)n3)cc2)cc1 [Example 3-26]
12 | 0.16 | 180 to 182 °C | CN(C[C@H]1CC[C@H](c2ccc(Cl)cc2)CC1)c1ccc(-c2csc(CN(CC(=O)O)Cc3ccccc3)n2)cc1 [Example 3-34]
13 | 0.16 | 229 to 231 °C | CN(Cc1ccc([C@H]2CC[C@H](C)CC2)cc1)c1ccc(-c2csc(CN3CCC(C(=O)O)(c4ccccc4)CC3)n2)cc1 [Example 3-69]
14 | 0.16 | 167 to 170 °C (dec.) | CN(C[C@H]1CC[C@H](c2ccc(Cl)cc2)CC1)c1ccc(-c2csc(CN3CCC(C(=O)O)(c4ccccc4)CC3)n2)cc1 [Example 3-70]
15 | 0.095 | 202 to 205 °C | CN(Cc1ccc([C@H]2CC[C@H](C)CC2)cc1)c1ccc(-c2csc(CN3Cc4ccccc4CC3C(=O)O)n2)cc1 (stereo partly drawn) [Example 3-71]
16 | 0.21 | 146 °C | CCCC(CCC)c1ccc(CN(C)c2ccc(-c3csc(CN(C)[C@H](C(=O)O)c4ccccc4)n3)cc2)cc1 [Example 3-87]
17 | 0.092 | 153 to 155 °C | CCCC(CCC)c1ccc(OCc2ccc(-c3csc(CN(CC(=O)O)Cc4nc5ccccc5[nH]4)c3)cc2)cc1 [Example 4-6]
18 | 0.12 | 172 to 174 °C | CCCC(CCC)c1ccc(OCc2ccc(-c3ccc(CN(CC(=O)O)CC(=O)Nc4ccc(C(C)C)cc4)s3)cc2)cc1 [Example 4-9]
19 | 0.17 | 185 to 188 °C | CCCC(CCC)c1ccc(OCc2ccc(-c3ccc(C(=O)N(CC(=O)O)Cc4nc5ccccc5n4C)s3)cc2)cc1 [Example 4-42]
20 | 0.12 | 134 to 136 °C | CCCC(CCC)c1ccc(OCc2ccc(-c3ccc(C(=O)N(CC(=O)O)Cc4ccc(C(C)C)cc4)s3)cc2)cc1 [Example 4-44]
21 | 0.27 | 137 to 139 °C | CCCC(CCC)c1ccc(OCc2ccc(-c3ccc(C(=O)N(CC(=O)O)Cc4ccc(N(C)C)cc4)s3)cc2)cc1 [Example 4-45]
